Measurements as given in US20230416782A1, “ENHANCED NANOPARTICLE DELIVERY SYSTEMS” (Children's Hospital Medical Center, priority 2020, published 2023).

Legend:
HeLa cells = assay: luciferase DNP transfection of HeLa cells with drug given before, with or after the DNPs (luciferase activity, light-based assay); assay type: cell-based; conditions: drug four hours before, at the same time as, or four hours after luciferase DNPs, versus DNP alone
Method: HeLa cells were transfected with luciferase DNPs either four hours after cells were treated with drug, at the same time as cells were treated with drug, or four hours before cells were treated with drug; DNP alone, RX001 (roscovitine), RX011 (spermine), and RX008 (ruxolitinib).
HeLa cells were transfected with luciferase DNPs either four hours after cells were treated with drug, at the same time as cells were treated with drug, or four hours before cells were treated with drug, DNP alone, RX012 (doxorubicin), RX013 (acetohexamide), and RX014 (sildenafil citrate).
FIG. 12. […] HeLa cell were treated for four hours prior to luciferase DNP administration. Drugs were obtained from a blinded plate. Labels on graphs indicate drugs position on blinded plate. *: p<0.05, **: p<0.01, ***: p<0.001, ***: p<0.0001, compared to DNP Alone group.
(§1) FIG. 17 depicts pharmacological manipulations before, after, and during DNP transfection. Hela cells were given roscovitine (1 μM, CDK1 inhibitor), spermine (1 μM, CKII activator), or ruxolitinib (0.1 μM, JAK inhibitor) at various times during transfection of luciferase DNPs. A. Hela cells were dosed with drugs for 4 hours, washed, and then given luciferase DNPs for 24 hours. B. Hela cells were simultaneously given drug and luciferase DNPs for 24 hr. C. Hela cells were given luciferase DNPs for 4 hours, washed, and then given drug for 24 hr. All cells were then lysed and analyzed for luciferase activity with a light-based assay. (n=8 for each group, signifies p<0.05 and signifies p<0.001).
as §1, with “Hela” for “FIG. 17 depicts pharmacological manipulations before, after, and during DNP transfection. Hela”, “group, mean and SEM shown,” for “group,”, “p<0.001)” for “p<0.001).”

[1] = test system: luciferase DNP gene transfer; assay: in vivo luciferase DNP gene transfer, drug dosed 2 hours before intratracheal DNP (BLI total photons and lung luciferase activity); conditions: for enhancement of in vivo DNP transfection over time (BLI): 2, 3, 7 and 14 days after DNP; for enhancement of in vivo DNP transfection over time (BLI) / DNP gene delivery efficacy in vivo (BLI total photons and lung luciferase activity): roscovitine 10 mg/kg, spermine 20 mg/kg, ruxolitinib 1 mg/kg, 2 hours prior to intratracheal 100 μg luciferase DNP; for DNP gene delivery efficacy in vivo (BLI total photons and lung luciferase activity): 14 days post DNP administration; for luciferase gene transfer in vivo, Bioluminescent Image (BLI) analysis: day 2, day 3, day 7 and day 14, compared to DNP Alone group; for total photons over a 10 min BLI exposure from the chest ROI, difference from the DNP alone group: day 14 after DNP, spermine 20 mg/kg (P<0.5), roscovitine 10 mg/kg (p<0.01), dosed 2 hours prior to intratracheal 100 μg luciferase DNP; for luciferase gene transfer in vivo, BLI image analysis and luciferase activity assay: versus DNP alone
Method: Total photon measurements were taken from the chest of each mouse, ROI outlined in red, and background luminescence was subtracted from mice saline control mice (not shown). B. Total photons collected over a 10 min BLI exposure from the ROI at each day.
All data was collected 14 days post DNP administration. […] The ROI, outlined in red, was consistently drawn on each mouse and used to quantify total photons in each mouse. B. Total photons collected over a 10 min BLI exposure from the ROI. Mice that received saline instead of DNPs (not shown) were used to subtract background from the experimental mice. […] Lungs from mice used in B were harvested immediately after BLI imaging and assayed for luciferase activity. (n>10 for each group, p<0.05, p<0.01, p<0.001)
All data was collected 14 days post DNP administration. […] The ROI, outlined in red, was consistently drawn on each mouse and used to quantify total photons in each mouse. B. Total photons collected over a 10 min BLI exposure from the ROI. Mice that received saline instead of DNPs (not shown) were used to subtract background from the experimental mice. […] Lungs from mice used in B were harvested immediately after BLI imaging and assayed for luciferase activity. (n>10 for each group, mean and SEM shown, p<0.05, p<0.01, p<0.001)

hCFTR gene transfer = assay: in vivo hCFTR gene transfer by DNP with drug (CFTR expression, PCR); set-up: species or system mice; conditions: 2, 4 and 7 days post-DNP administration; versus DNP alone
From the text: FIG. 16. Gene transfer of hCFTR is enhanced by pharmacologic manipulation of interactome proteins. DMP alone, RX001 (roscovitine), and RX008 (ruxolitinib), 2 days post-DNP administration, 4 days post-DNP administration and 7 days post-DNP administration.
FIG. 22. CFTR Expression comparison between NHBE cells (normal human bronchial/tracheal epithelial cells), Untreated Mice and Day 2 DNP Treated Mice, and CFTR Expression comparison in Day 4 mice treated with a vehicle (DNP Alone) or drug. Day 4 data represents vector subtracted values for the PCR of CFTR.

Compound	gene transfer of luciferase in vitro (HeLa cells)	enhancement of in vivo DNP transfection over time (BLI) [1]	DNP gene delivery efficacy in vivo (BLI total photons and lung luciferase activity) [1]	luciferase gene transfer in vivo, Bioluminescent Image (BLI) analysis [1]	total photons over a 10 min BLI exposure from the chest ROI, difference from the DNP alone group [1]	luciferase gene transfer in vivo, BLI image analysis and luciferase activity assay [1]	gene transfer of hCFTR (hCFTR gene transfer)
CC[C@H](CO)Nc1nc(NCc2ccccc2)c2ncn(C(C)C)c2n1 [RX001, Roscovitine]	enhanced	maintained over time	enhancement	enhances	significantly different	enhances	enhanced
N#CC[C@H](C1CCCC1)n1cc(-c2ncnc3[nH]ccc23)cn1 [RX008, Ruxolitinib]	enhanced	maintained over time	enhancement	enhances		enhances	enhanced
NCCCNCCCCNCCCN [RX011, Spermine]	enhanced	maintained over time	enhancement	enhances	significantly different	enhances	
COc1cccc2c1C(=O)c1c(O)c3c(c(O)c1C2=O)C[C@@](O)(C(=O)CO)C[C@@H]3O[C@H]1C[C@H](N)[C@H](O)[C@H](C)O1 [RX012, Doxorubicin]	enhanced						
CC(=O)c1ccc(S(=O)(=O)NC(=O)NC2CCCCC2)cc1 [RX013, Acetohexamide]	enhanced						
CCCc1nn(C)c2c(=O)nc(-c3cc(S(=O)(=O)N4CCN(C)CC4)ccc3OCC)[nH]c12 [RX014, Sildenafil]	enhanced						
